Reference: PMC5577610, “Nine New Triterpene Glycosides, Magnumosides A1–A4, B1, B2, C1, C2 and C4, from the Vietnamese Sea Cucumber Neothyonidium (=Massinium) magnum: Structures and Activities against Tumor Cells Independently and in Synergy with Radioactive Irradiation” (Marine Drugs, 2017)

Experiments:
mouse erythrocytes = type: cell-based; conditions: CD-1 mouse erythrocytes, 1 h at 37 °C; dose causing 50% of hemolysis
Description: The erythrocytes were washed thrice with 0.9% NaCl, centrifuged (450 g) on a centrifuge […] (Heraeus, Hanau, Germany) for 5 min followed by re-suspending in phosphate-buffered saline (PBS), pH 7.2-7.4. […] ED50 was calculated using SigmaPlot 3.02 software (Jandel Scientific, San Rafael, CA, USA). […] The erythrocyte suspension in phosphate-buffered saline, pH 7.2-7.4 (PBS) with 20 μL of the solvent without a tested compound was used as negative control.

mouse spleenocytes = experiment: Cytotoxic activity (MTT) against mouse spleenocytes; type: cell-based; conditions: CD-1 mouse spleenocytes, MTT, incubated over night
Description: (§1) The spleenocytes from CD-1 line mice were used. The spleen was isolated from mice and homogenized. The spleenocytes were washed thrice and resuspended with RPMI-1640 medium contained gentamicine 8 μg/mL (Biolot, Saint Petersburg, Russia). The museum tetraploid strain of murine ascites Ehrlich carcinoma cells from the All-Russian cancer center RAMS (Moscow, Russia) was used. The cells of the ascites Ehrlich carcinoma were separated from ascites, which were collected on day 7 after inoculation in mouse CD-1 line. The cells were washed of ascites thrice and then resuspended in liquid media DMEM with L-Glutamine (Biolot, Saint Petersburg, Russia).
(§2) The solutions of tested substances in different concentrations (20 µL) and cell suspension (200 µL) were added in wells of 96-well plate and incubated over night at 37 °C and 5% CO2. After incubation the cells were sedimented by centrifugation, 200 µL of medium from each well were collected and 100 µL of pure medium were added. Then 10 µL of MTT solution […] (Sigma, St. Louis, MO, USA) were added in each well. Plate was incubated 4 h, after that 100 µL SDS-HCl were added to each well and plate was incubated at 37 °C 4–18 h. Optical density was measured at 570 nm and 630–690 nm. The activity of the substances was calculated as the ratio of the dead cells to general cells amount (ED50). Typicoside A1 [28] and cucumarioside A2-2 [11] were used as positive controls.

[1] = test system: ascites form of mouse Ehrlich carcinoma cells; experiment: Cytotoxic activity (MTT) against the ascites form of mouse Ehrlich carcinoma cells; type: cell-based; conditions: ascites form of mouse Ehrlich carcinoma cells, MTT, incubated over night
Description: as §1, §2

[2] = test system: human lung carcinoma A549 cells; design: method as in PMID 25738799; conditions: cited from earlier work
[3] = test system: human lung carcinoma H1299 cells; design: method as in PMID 25738799; conditions: cited from earlier work
[4] = test system: Lewis lung carcinoma cell xenograft tumor; design: method as in PMID 25738799; conditions: C57BL/6 mice bearing a Lewis lung carcinoma cell xenograft tumor; cited from earlier work

C=C(C)CCCC1(C)OC(=O)C23CCC4C(=CCC5C(C)(C)C(OC6OCC(OS(=O)(=O)[O-])C(O)C6OC6OC(C)C(OC7OC(CO)C(O)C(OC8OC(CO)C(O)C(OC)C8O)C7O)C(O)C6OC6OCC(O)C(O)C6O)CCC45C)C2(C)CC(=O)C13.[Na+] (stereo not drawn) [Cucumarioside A2-2, reference compound]
Hemolytic Activity, ED50 (mouse erythrocytes): 0.82 ± 0.02 μM/mL | IC50 (mouse spleenocytes): 1210 ± 20 nM | IC50 [1]: 1390 ± 15 nM

CC(C)=CCC[C@](C)(O)[C@H]1CC[C@]2(C)[C@@H]1[C@H](O)C[C@@H]1[C@@]3(C)CC[C@H](O[C@@H]4O[C@H](CO)[C@@H](O)[C@H](O)[C@H]4O[C@@H]4O[C@H](CO)[C@@H](O)[C@H](O)[C@H]4O)C(C)(C)[C@@H]3CC[C@]12C [ginsenoside Rg3]
Sensitization to γ-radiation (in words) [2]: sensitized | Sensitization to γ-radiation (in words) [3]: sensitized | Efficacy of radiation therapy (in words) [4]: significantly enhanced the efficacy of radiation therapy
